In patent EP2865421A1, “Bitter taste receptor agonists for topical use” (Albert-Ludwigs-Universität Freiburg, priority 2013, dated 2015):

Columns and labels:
T2R38 = target: T1, T2R38 (Homo sapiens, UniProt P59533, A49P/I296V); assay: PTC-induced calcium influx in taster cell line JEG-3 and its inhibition by probenecid; format: cell-based
T1 construct: endogenous in cells; host or cells: JEG-3 (human placental cell line)
T1 sequence (P59533 1-333 A49P/I296V): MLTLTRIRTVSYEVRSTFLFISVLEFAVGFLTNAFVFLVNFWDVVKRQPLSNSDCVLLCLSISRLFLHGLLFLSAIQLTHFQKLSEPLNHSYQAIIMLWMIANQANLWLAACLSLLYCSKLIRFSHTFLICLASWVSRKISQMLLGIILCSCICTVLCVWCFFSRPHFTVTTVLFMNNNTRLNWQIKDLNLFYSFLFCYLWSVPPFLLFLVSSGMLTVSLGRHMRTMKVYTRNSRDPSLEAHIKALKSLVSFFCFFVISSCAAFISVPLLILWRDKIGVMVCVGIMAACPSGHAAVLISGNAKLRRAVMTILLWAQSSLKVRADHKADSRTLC
Description: Intracellular Ca^2+ concentration measurements in single cells were carried out using the fluorescence indicator fura-2-am (Invitrogen). Cells were washed with a buffer containing 130 mM NaCl, 5 mM KCI, 10 mM HEPES, 10 mM Glucose and 1 mM CaCl2 adjusted to pH 7.4 and loaded with 2 µM fura-2-am and 0.04% Pluronic F-127 (Invitrogen) for 30 min. After rinsing twice, cells were allowed to de-esterify fura-2-am for 30 min. Measurements were performed with a monochromator-based imaging system attached to an inverted microscope (Axiovert S100, Zeiss). Fluorescence was excited at 340 and 380 nm and emission measured at 510 nm. After 60s, cells were stimulated with various concentrations of diphenidol or amarogentin, 100 µM PTC or the respective solvent control. T2R38 receptor inhibition was performed by pre-incubation of JEG-3 cells for 1h with the T2R38 antagonist probenecid (1 mM) before PTC stimulation. After correction of background fluorescence, the fluorescence ratio was calculated using Axiovision software.

LAD-2 human mast cells [1] = assay: TNF-α release from SP-stimulated LAD-2 mast cells (ELISA); format: cell-based; details: SP 2 µM, 24 h, 30 min pre-incubation, amarogentin 136 µM, diphenidol 136 µM, azelastine 24 µM (Figure 14B)
Description: (§1) LAD-2 human mast cells (obtained from Dr. A. Kirshenbaum NIH) were cultured in serum-free media (StemPro-34, Gibco, Germany) supplemented with 2mM L-glutamine and 100 ng/ml rhSCF (recombinant human stem cell factor; Cell signaling technologies). The human keratinocyte cell line HaCaT was cultured in Dulbecco's modified essential medium (DMEM; Invitrogen) containing 10% fetal calf serum (FCS; PAA, Pasching, Austria) at 37 °C in a humidified atmosphere with 5% CO2. LAD-2 cells were washed with PBS and resuspended in complete medium. LAD-2 cells (2x10^5 cells /400 µl/well) were plated in 48 well flat bottom Falcon cell culture plates from Becton Dickinson and then stimulated with SP (2 µM, Sigma-Aldrich) for 1 or 24 h. Some cells were pre-incubated for 30 min with amarogentin (136 µM, Phytolab), diphenidol (136 µM, Santa Cruz) or azelastine (24 µM, Sigma) as indicated. The supernatants were collected for further assays. TNF-α, IL-6, IL-8 and MMP-1 release into the supernatant fluid 24 h after cell stimulation (either LAD-2 oder HaCaT cells) were measured by Enzyme-Linked Immunosorbent Assay (ELISA) using a commercial kit from R&D Systems according to the manual instructions.

LAD-2 human mast cells [2] = assay: Degranulation assay: histamine release from SP-stimulated LAD-2 mast cells (ELISA); format: cell-based; details: SP 2 µM, 1 h, 30 min pre-incubation, amarogentin 136 µM, azelastine 24 µM (Figure 14A)
Description: as §1, with “assays. Mast cell degranulation was assessed by measuring histamine in” for “assays. TNF-α, IL-6, IL-8 and MMP-1 release into”, “fluid 1” for “fluid 24”, “stimulation with SP (2 µM). Histamine levels” for “stimulation (either LAD-2 oder HaCaT cells)”, “were assayed” for “were measured by Enzyme-Linked Immunosorbent Assay (ELISA)”, “a Histamine ELISA” for “a commercial kit”, “from IBL international.” for “from R&D Systems according to the manual instructions.”

LAD-2 cells = format: cell-based, human
Description: (§3) The method is based on the bioluminescence measurement of ATP that is present in metabolically active cells. Luciferase catalyzes the formation of light from ATP and luciferin. The emitted light intensity is directly proportional to the ATP concentration and is measured using a luminometer (Sirius HT; MWG).

[3] = tested on: keratinocyte cell line HaCaT; assay: IL-6 and MMP-1 release from HaCaT stimulated with histamine and IFN-γ (ELISA); format: cell-based, human; details: histamine + IFN-γ (200U/ml), 24 h, amarogentin 136 µM, azelastine 24 µM (Figure 15B)
Description: The Keratinocyte cell line HaCaT (2x10^5 cells /400 µl/well) were plated in 48 well flat bottom Falcon cell culture plates from Becton Dickinson and then stimulated with histamine (100 µl) and TNF-α (25 ng/ml) or IFNγ (200U/ml) for 24 h. Some cells were pre-incubated for 30 min with amarogentin (136 µM, Phytolab), diphenidol (136 µM, Santa Cruz) or azelastine (24 µM, Sigma) as indicated. The supernatants were collected for further assays. TNF-α, IL-6, IL-8 and MMP-1 release into the supernatant fluid 24 h after cell stimulation (either LAD-2 oder HaCaT cells) were measured by Enzyme-Linked Immunosorbent Assay (ELISA) using a commercial kit from R&D Systems according to the manual instructions.

[4] = tested on: human primary keratinocytes (hPKs); assay: Differentiation marker expression in human primary keratinocytes (RT-PCR); format: cell-based; details: 3 days, amarogentin 100 µM, diphenidol 100 µM or calcium 2 mM, vs untreated control (Figure 12)
Description: The human keratinocyte cell line HaCaT, the neuroblastoma cell line SH-SY5Y and the placental cell line JEG-3 were from CLS Cell Lines Service (Heidelberg, Germany) and cultured in Dulbecco's modified essential medium (DMEM; Invitrogen) containing 10% fetal calf serum (FCS; PAA, Pasching, Austria) at 37 °C in a humidified atmosphere with 5% CO2. For double fluorescence stainings the cells were seeded in a four-field chamber slides (Thermo Fisher Scientific GmbH; 1 ×10^5 cells/ml). For calcium imaging experiments, cells were seeded on polylysin (Sigma-Aldrich, Munich, Germany) coated cover slips at a density of 1.5 -2x 10^5. After isolation of human primary keratinocytes (hPK) from skin samples, the cells were incubated for 3 days with calcium (2 mM), amarogentin (100 µM) or diphenidol (100 µM) before RNA isolation and determination of the differentiation markers. Reverse transcription PCR was performed as described (Muller et al.,2008). In brief, total RNA was isolated using the Trizol reagent (Invitrogen) according to the manusfacturer's instruction. […] The PCR primers (20 pmol each) used to amplify keratin 10 (KRT10), INV, TGM and ß-actine were already published (Muller et al., 2008). ß-actine was used as internal loading control. After gel electrophoresis quantification was archived with ImageJ software.

HaCaT keratinocytes = assay: Calcium imaging (fura-2-am) in HaCaT keratinocytes; format: cell-based, human; details: for calcium influx: HaCaT cells
Description: The human keratinocyte cell line HaCaT, the neuroblastoma cell line SH-SY5Y and the placental cell line JEG-3 were from CLS Cell Lines Service (Heidelberg, Germany) and cultured in Dulbecco's modified essential medium (DMEM; Invitrogen) containing 10% fetal calf serum (FCS; PAA, Pasching, Austria) at 37 °C in a humidified atmosphere with 5% CO2. For double fluorescence stainings the cells were seeded in a four-field chamber slides (Thermo Fisher Scientific GmbH; 1 ×10^5 cells/ml). For calcium imaging experiments, cells were seeded on polylysin (Sigma-Aldrich, Munich, Germany) coated cover slips at a density of 1.5 -2x 10^5. After isolation of human primary keratinocytes (hPK) from skin samples, the cells were incubated for 3 days with calcium (2 mM), amarogentin (100 μM) or diphenidol (100 μM) before RNA isolation and determination of the differentiation markers. Intracellular Ca^2+ concentration measurements in single cells were carried out using the fluorescence indicator fura-2-am (Invitrogen). Cells were washed with a buffer containing 130 mM NaCl, 5 mM KCI, 10 mM HEPES, 10 mM Glucose and 1 mM CaCl2 adjusted to pH 7.4 and loaded with 2 μM fura-2-am and 0.04% Pluronic F-127 (Invitrogen) for 30 min. After rinsing twice, cells were allowed to de-esterify fura-2-am for 30 min. Measurements were performed with a monochromator-based imaging system attached to an inverted microscope (Axiovert S100, Zeiss). Fluorescence was excited at 340 and 380 nm and emission measured at 510 nm. After 60s, cells were stimulated with various concentrations of diphenidol or amarogentin, 100 μM PTC or the respective solvent control. […] receptor inhibition was performed by pre-incubation of JEG-3 cells for 1h with the […] antagonist probenecid (1 mM) before PTC stimulation. After correction of background fluorescence, the fluorescence ratio was calculated using Axiovision software.

JEG-3 placental cells = assay: Calcium imaging (fura-2-am) in JEG-3 placental cells; format: cell-based, human; details: 100 µM diphenidol, significant, maximum stated for all cell lines (Figure 8)
Description: (§2) The human keratinocyte cell line HaCaT, the neuroblastoma cell line SH-SY5Y and the placental cell line JEG-3 were from CLS Cell Lines Service (Heidelberg, Germany) and cultured in Dulbecco's modified essential medium (DMEM; Invitrogen) containing 10% fetal calf serum (FCS; PAA, Pasching, Austria) at 37 °C in a humidified atmosphere with 5% CO2. For double fluorescence stainings the cells were seeded in a four-field chamber slides (Thermo Fisher Scientific GmbH; 1 ×10^5 cells/ml). For calcium imaging experiments, cells were seeded on polylysin (Sigma-Aldrich, Munich, Germany) coated cover slips at a density of 1.5 -2x 10^5. After isolation of human primary keratinocytes (hPK) from skin samples, the cells were incubated for 3 days with calcium (2 mM), amarogentin (100 μM) or diphenidol (100 μM) before RNA isolation and determination of the differentiation markers. Intracellular Ca^2+ concentration measurements in single cells were carried out using the fluorescence indicator fura-2-am (Invitrogen). Cells were washed with a buffer containing 130 mM NaCl, 5 mM KCI, 10 mM HEPES, 10 mM Glucose and 1 mM CaCl2 adjusted to pH 7.4 and loaded with 2 μM fura-2-am and 0.04% Pluronic F-127 (Invitrogen) for 30 min. […] Fluorescence was excited at 340 and 380 nm and emission measured at 510 nm. […] After correction of background fluorescence, the fluorescence ratio was calculated using Axiovision software.

[5] = tested on: SH-SY5Y neuroblastoma cells; assay: Calcium imaging (fura-2-am) in SH-SY5Y neuroblastoma cells; format: cell-based, human; details: 100 µM diphenidol, significant, maximum stated for all cell lines (Figure 8)
Description: as §2

[6] = tested on: keratinocyte cell line HaCaT; assay: IL-8 and MMP-1 release from HaCaT stimulated with histamine and TNF-α (ELISA); format: cell-based, human; details: histamine + TNF-α (25 ng/ml), 24 h, amarogentin 136 µM 30 min pre-incubation (Figure 15A)
Description: The Keratinocyte cell line HaCaT (2x10^5 cells /400 µl/well) were plated in 48 well flat bottom Falcon cell culture plates from Becton Dickinson and then stimulated with histamine (100 µl) and TNF-α (25 ng/ml) or IFNγ (200U/ml) for 24 h. Some cells were pre-incubated for 30 min with amarogentin (136 µM, Phytolab), diphenidol (136 µM, Santa Cruz) or azelastine (24 µM, Sigma) as indicated. The supernatants were collected for further assays.
TNF-α, IL-6, IL-8 and MMP-1 release into the supernatant fluid 24 h after cell stimulation (either LAD-2 oder HaCaT cells) were measured by Enzyme-Linked Immunosorbent Assay (ELISA) using a commercial kit from R&D Systems according to the manual instructions.

Description for HaCaT cells: as §3

expression of the differentiation marker keratin 10, involucrin und transglutaminase [4]	Compound	secretion of TNF-α (LAD-2 human mast cells [1])	histamine release (LAD-2 human mast cells [2])	cytotoxicity (LAD-2 cells)	IL-6 production [3]	MMP-1 production [3]	cytotoxicity (HaCaT cells)	also measured
–	NC(=S)Nc1ccccc1 [PTC, Phenylthiocarbamid]	–	–	–	–	–	–	calcium influx (T2R38; PTC 100 µM, JEG-3 cells (PAV taster), vs DMSO 0.05% (Figure 10)): induced calcium influx
–	CN1CCCC(n2nc(Cc3ccc(Cl)cc3)c3ccccc3c2=O)CC1 (stereo not drawn) [azelastine]	blocked the secretion of TNF-α	inhibits histamine release	no cytotoxicity	decreased	decreased	–	–
increased	OC(CCCN1CCCCC1)(c1ccccc1)c1ccccc1 [diphenidol]	blocked the secretion of TNF-α	–	–	–	–	no cytotoxicity	calcium influx compared to the solvent control (HaCaT keratinocytes; 100 µM diphenidol, HaCaT, significant, maximum stated for all cell lines (Figure 8)): up to 7 fold; calcium influx (HaCaT keratinocytes; diphenidol 30 µM, fura-2 ratio before/after stimulation vs solvent (Figure 11)): significant calcium influx; calcium influx compared to the solvent control (JEG-3 placental cells): up to 7 fold; calcium influx compared to the solvent control [5]: up to 7 fold
–	CCCN(CCC)S(=O)(=O)c1ccc(C(=O)O)cc1 [probenecid]	–	–	–	–	–	–	PTC-induced calcium currents (T2R38; 1h pre-incubation with probenecid (1 mM), then PTC 100 µM, JEG-3 cells): reduces PTC-induced calcium currents to solvent level
increased	amarogentin	blocked the secretion of TNF-α	inhibits histamine release	no cytotoxicity	decreased	decreased	no cytotoxicity	calcium influx (HaCaT keratinocytes; 100 µM amarogentin, vs 0.1% EtOH (Figure 11)): significant calcium influx; release of IL-8 [6]: reduces the release; release of MMP-1 [6]: reduces the release
